Laboratory results reported in patent US4871719A, “Composition for controlling parasites in productive livestock” (Ciba-Geigy Corporation, priority 1987, dated 1989).

tested on: L1 larvae of Lucilia sericata; experiment: Action against L1 larvae of Lucilia sericata; assay type: in vivo; conditions: 96 h, read-out: action (mortality count)
Procedure: 1 ml of an aqueous suspension of test compound is mixed with 3 ml of a special larval culture medium at about 50° C. such that a homogeneous composition containing 250 ppm or 125 ppm of active ingredient is obtained. About 30 Lucilia sericata larvae (L1) are put into each test tube sample. A mortality count is made after 4 days. The compounds of formula I, such as, for example, Nos. 3.2, 3.6, 3.7, 3.10, 3.34 and 3.38, achieved 100% action at 125 ppm.

Compound | mortality at 125 ppm [%]
COC1CC[C@@]2(O1)/C(C)=C/C[C@@H]1C[C@@H](C[C@]3(CC[C@H](C)[C@@H](C(C)C)O3)O1)OC(=O)[C@@H]1C=C(C)[C@@H](O)[C@H]3OC/C(=C\C=C\[C@@H]2C)[C@]31O (single isomer, unassigned) [Compound 3.2] | 100
CCCOC1CC[C@@]2(O1)/C(C)=C/C[C@@H]1C[C@@H](C[C@]3(CC[C@H](C)[C@@H](C(C)C)O3)O1)OC(=O)[C@@H]1C=C(C)[C@@H](O)[C@H]3OC/C(=C\C=C\[C@@H]2C)[C@]31O (single isomer, unassigned) [Compound 3.7] | 100
CC1=C[C@H]2C(=O)O[C@H]3C[C@@H](C/C=C(\C)[C@]4(CCC(OC(C)C)O4)[C@@H](C)/C=C/C=C4\CO[C@H]([C@@H]1O)[C@@]42O)O[C@@]1(CC[C@H](C)[C@@H](C(C)C)O1)C3 (single isomer, unassigned) [Compound 3.10] | 100
COCCOC1CC[C@@]2(O1)/C(C)=C/C[C@@H]1C[C@@H](C[C@]3(CC[C@H](C)[C@@H](C(C)C)O3)O1)OC(=O)[C@@H]1C=C(C)[C@@H](O)[C@H]3OC/C(=C\C=C\[C@@H]2C)[C@]31O (single isomer, unassigned) [Compound 3.34] | 100
CCOC1CC[C@@]2(O1)/C(C)=C/C[C@@H]1C[C@@H](C[C@]3(CC[C@H](C)[C@@H](C(C)C)O3)O1)OC(=O)[C@@H]1C=C(C)[C@@H](O)[C@H]3OC/C(=C\C=C\[C@@H]2C)[C@]31O (stereo partly drawn) [Compound 3.6] | 100
CCOCCOC1CC[C@@]2(O1)/C(C)=C/C[C@@H]1C[C@@H](C[C@]3(CC[C@H](C)[C@@H](C(C)C)O3)O1)OC(=O)[C@@H]1C=C(C)[C@@H](O)[C@H]3OC/C(=C\C=C\[C@@H]2C)[C@]31O (stereo partly drawn) [Compound 3.38] | 100
